Source: EP2293808B1, “AN SYNTHETIC PEPTIDE CONTAINING BONE FORMING PEPTIDE 1(BFP 1) FOR STIMULATING OSTEOBLAST DIFFERENTIATION, AND PHARMACEUTICAL COMPOSITION COMPRISING THE SYNTHETIC PEPTIDE” (Industry Foundation Of Chonnam National University, priority 2008, dated 2012)
Ends that are not written are not given here.

Test system: cells
Test: MTT assay for cytotoxicity
Assay type: cell-based
Conditions: within a range of used concentrations, FIG. 3

Sequence: GQGFSYPYKAVFSTQ [BFP 1, Gly-Gln-Gly-Phe-Ser-Tyr-Pro-Tyr-Lys-Ala-Val-Phe-Ser-Thr-Gln]
- cytotoxicity: not toxic to cells
